The values below come from patent publication US5753631A, “Intercellular adhesion mediators” (Cytel Corporation, priority 1995, dated 1998).

The structures appear in SMILES notation.

The subject of assay [1] is CVF-induced acute lung injury. Put plainly: Cobra venom factor (CVF)-induced acute lung injury in the rat. The format is in vivo. The procedure: Groups of rats were pretreated with either vehicle, SLN-OH (0.6 mg/Kg), or with SLX-OH (0.6 mg/Kg) 5 minutes prior to administration of either CVF or PBS. Each bar represents the mean of 6 animals and vertical lines represent the standard error of the mean.
Groups of rats were pretreated with either vehicle or Z at the indicated doses 5 minutes prior to administration of CVF or PBS. Each point represents the mean of 6 animals and vertical lines represent the standard error of the mean.
The intravenous injection of CVF produces intravascular complement activation which results in lung injury, defined as an increase in neutrophil accumulation within the lung, an increase in pulmonary vascular permeability and in lung hemorrhage. It is likely that intravascular complement activation results in the generation of a wide range of inflammatory mediators. Of particular relevance to the studies described here is generation of the split fifth complement component, C5a, which can stimulate the release of histamine from circulating basophils and tissue mast cells. […] The expression of selectins, including P-selectin, is a necessary first step in the process of leukocyte adherence to vascular endothelium.
Animals were dosed with different oligosaccharide preparations or phosphate buffered saline (PBS) five minutes before administration of cobra venom factor (20 units/Kg, i.v.). Included in this material was an aliquot of ^125 I-bovine serum albumin (0.5 μCi) and ^51 Cr labelled autologous red blood cells (0.5 μCi) for measuring plasma extravasation and hemorrhage respectively. Thirty minutes after administration of the cobra venom factor the animals were anesthetized with ketamine hydrochloride (10 mg/Kg) and exsanguinated via the posterior vena cava. The lung vasculature was then perfused through the right cardiac ventricle with 10 mL of PBS. The lungs were removed and the amount of radioactivity remaining within the tissue assessed with a gamma scintillation counter. Increased pulmonary vascular permeability was measured as the ratio of ^125 I in lung tissue compared with the amount present in 1 mL of venous blood obtained at the time of death. Lung hemorrhage was measured as the ratio of ^51 Cr in lung tissue compared with the amount present in 1 mL of venous blood obtained at the time of death. Neutrophil accumulation in lungs was determined by measuring the myeloperoxidase activity of lungs homogenized in PBS. Myeloperoxidase activity in lung supernatants was assayed by measuring the change in absorbance at 460 nm resulting from decomposition of H2 O2 in the presence of o-dianisidine

The subject of assay [2] is IgA immune complex induced lung injury. The assay can be described thus: IgA immune complex-induced acute lung injury in the rat. The conditions noted are these: conclusion in words. The format is in vivo, rat (male Long-Evans). On the procedure: Groups of rats were dosed with either vehicle, SLN-OH (100 μpg), or with SLX-OH (100 μg) […] post induction of inflammation. Each bar represents the mean of 6 animals and vertical lines represent the standard error of the mean.
Adult male (300 g) specific pathogen-free Long-Evans rats purchased from Charles River Labs (Portage, Mich.) were employed in the studies. For the induction of IgG immune complex pulmonary inflammation rabbit polyclonal IgG rich in antibody to bovine serum albumin (antiBSA) was purchased from Organon Teknika (Westchester, PA). Intraperitoneal ketamine (10 mg/Kg) was administered for anesthesia. 2.5 mg of anti-BSA in a volume of 300 μl was instilled intratracheally via a small intratracheal catheter during inspiration after surgical exposure of the trachea. Intravenous injection of 10 mg BSA was injected intravenously to generate immune complex formation. Trace amounts of ^125 I-BSA and ^51 Cr-RBC were administered with the BSA as markers for plasma and RBC extravasation respectively. Rats were sacrificed 4 h later and lung injury was assessed by the ratio of radiolabelled albumin in the lungs relative to the circulation (permeability), the ratio of RBC in the lungs relative to the circulation (hemorrhage) and the amount of myeloperoxidase activity in a lung homogenate (neutrophil accumulation). For induction of IgA immune complex induced lung injury 1.2 mg of a murine myeloma IgA protein specific for dinitrophenol (DNP) was instilled intratracheally and 3.3 mg DNP-bovine serum albumin injected intravenously. Lung injury was assessed in the same manner described for IgG-induced lung injury.
SLX-OH, Z, the non-fucosylated control oligosaccharide SLN, or an equivalent volume of PBS were injected intravenously in three equally divided doses at 2, 2.5, and 3 h following deposition of immune complexes. This schedule for injections was selected since it coincides with the time during which rapid expression of E-selectin occurs in the pulmonary vasculature.

Assay [3] relates to myocardial ischemia-reperfusion injury in the cat heart. Put plainly: Myocardial ischemia-reperfusion injury in cats: ischemic myocardium. The format is in vivo, cat (male). The conditions noted are these: 10 mg/Kg i.v.; control 35±4%, P<0.01. The procedure:
(§1) A model of myocardial ischemia and reperfusion injury in cats was performed according to the methods of Tsao et al (Circulation 82:1402-1412 (1990), which is incorporated herein by reference. Briefly, male cats (2.5-3.5 Kg) were anesthetized with sodium pentobarbital (30 mg/Kg, i.v.). An intratracheal tube was inserted through a mid-line incision and all cats were given intermittent positive pressure ventilation by a Harvard small animal respirator. A polyethylene catheter was inserted into the external jugular vein and the right […] was cannulated and connected to a Statham P23AC pressure transducer for the measurement of arterial blood pressure. A midline thoracotomy was performed, the pericardium was opened and the heart was exposed. A 2-0 silk suture was carefully placed around the left anterior descending artery (LAD) 10-12 mm from its origin. After a 30 minute period of stabilization myocardial ischemia was initiated by complete ligation of the LAD for 1.5 hours of ischemia followed by 4.5 hours of reperfusion. Z (10 mg/Kg in PBS) or PBS alone were administered intravenously 10 minutes prior to the initiation of reperfusion.
Area at risk was determined by reocclusion of the LAD at the end of the reperfusion period followed by the injection of Evans blue dye into the left atrium. The area of risk was, therefore, determined by negative staining.

The test system of assay [4] is coronary artery rings. The assay can be described thus: Acetylcholine-induced endothelial dependent relaxation of coronary artery rings from ischemic-reperfused cats. The format is in vivo, cat. The conditions noted are these: 10 mg/Kg i.v.; control 22±6%, P<0.01. On the procedure: as §1, with “After a 30 minute period of stabilization myocardial ischemia was initiated by complete ligation of the LAD for 1.5 hours of ischemia followed by 4.5 hours of reperfusion. Z (10 mg/Kg in PBS) or PBS alone were administered intravenously 10 minutes prior to the initiation of reperfusion.” left out
(§2) Endothelial dependent relaxation of coronary artery rings was determined by measuring the acetylcholine-induced relaxation of rings previously contracted with the thromboxane A2 mimetic U46619. Data are expressed as percentage relaxation. Creatinine kinase enzyme levels were measured immunochemically in plasma samples collected at the end of the reperfusion period. The adherence of PMNs to sections of coronary artery was measured in vitro using fluorescene labelled autologous cat neutrophils.

For assay [5], the system named is creatinine kinase. The assay can be described thus: Plasma creatinine kinase after myocardial ischemia-reperfusion in cats. The conditions noted are these: 10 mg/Kg i.v.; control 25±3, P<0.01. The format is in vivo, cat. The procedure:
as §1, with “After a 30 minute period of stabilization myocardial ischemia was initiated by complete ligation of the LAD for 1.5 hours of ischemia followed by 4.5 hours of reperfusion. Z (10 mg/Kg in PBS) or PBS alone were administered intravenously 10 minutes prior to the initiation of reperfusion.” left out
as §2

Assay [6] has as its system coronary vascular endothelium. Put plainly: Adherence of cat PMNs to coronary endothelium in vitro. The assay is classed as cell-based. The procedure: as §2
In assay [7] the test system is dermal and pulmonary models of inflammation. The assay can be described thus: Dermal and pulmonary models of inflammation: leukocyte accumulation. The format is in vivo.
The mark [8] stands for this setting: dose range 0.15 to 1.5 mg/Kg (FIG. 17).

For `CC(=O)NC1C(O)OC(CO)C(OC2OC(CO)C(O)C(OC3(C(=O)O)CC(O)C(NC(C)=O)C(C(O)C(O)CO)O3)C2O)C1O` (stereo not drawn) [SLN, reference compound], the “effect on CVF-induced permeability, hemorrhage, MPO / lung injury” value in assay [1] (in words, prior to CVF, 30 minutes) was “did not inhibit CVF-induced neutrophil accumulation or CVF-induced lung injury”.

For the compound `CCO[C@@H]1O[C@H](CO)[C@H](O)[C@H](O[C@@H]2O[C@H](CO)[C@@H](O[C@@H]3O[C@H](CO)[C@H](O)[C@H](O[C@]4(C(=O)O)C[C@H](O)[C@@H](NC(C)=O)[C@H]([C@H](O)[C@H](O)CO)O4)[C@H]3O)[C@H](O[C@@H]3O[C@@H](C)[C@@H](O)[C@@H](O)[C@@H]3O)[C@H]2NC(C)=O)[C@H]1O` [Z, Ethyl(sodium(5-acetamido-3,5-dideoxy-α-D-glycero-D-galacto-2-nonulopyanosylonate))-(2-3)-O-(β-D-galactopyranosyl)-(1-4)-O-((α-L-fucopyranosyl)-(1-3))-O-(2-acetamido-2-deoxy-β-D-glucopyranosyl)-(1-3)-O-β-D-galactopyranoside], in assay [1] (setting [8]), the reduction of hemorrhage came out at 47%, the “reduction of neutrophil MPO content” value is reported as 49% and the “reduction of permeability values” came to 67%. Further, the “dose at which protective effects plateau” value in assay [1] (rat, in vivo) is 0.6 mg/kg. Further, the “effect on IgA immune complex-induced neutrophil accumulation and pathological sequelae” value in assay [2] is recorded as “not IgA”. The “extent of myocardial ischemia, of the area at risk” value in assay [3] amounted to 6±1%. Also, the “endothelial dependent relaxation to acetylcholine” value in assay [4] was determined as 73±7%. Moreover, in assay [5], the “plasma concentration of creatinine kinase” value came to 7±1 IU/mg protein. The “adhesion of cat PMNs to thrombin stimulated coronary vascular endothelium” value in assay [6] (250μM, thrombin 2 unit/mL) was “blocked the adhesion of cat PMNs”. In addition, the “adherence of PMNs to coronary endothelium from treated animals” value in assay [6] (endothelium from treated animals versus control animals) is listed as “less than that determined in control animals”. Moreover, the “inhibition of leukocyte accumulation” value in assay [7] was “do not provide evidence of the ability of Z to inhibit leukocyte accumulation”.
